Measured values published in ChEMBL document CHEMBL3400106, “TR-FRET binding assay targeting unactivated form of Bruton's tyrosine kinase” (Bioorg Med Chem Lett, 2015).
Active and inactive are the calls of the source. The calls are words filed in the database; no cut-off is given here.

Legend:
[1] = target: T1, Tyrosine-protein kinase BTK (Homo sapiens, UniProt Q06187); experiment: Binding affinity to biotinylated and unactivated BTK (unknown origin) at 0.001 to 0.1 uM incubated for 1 hr by TR-FRET assay
T1 sequence (Q06187 whole entry): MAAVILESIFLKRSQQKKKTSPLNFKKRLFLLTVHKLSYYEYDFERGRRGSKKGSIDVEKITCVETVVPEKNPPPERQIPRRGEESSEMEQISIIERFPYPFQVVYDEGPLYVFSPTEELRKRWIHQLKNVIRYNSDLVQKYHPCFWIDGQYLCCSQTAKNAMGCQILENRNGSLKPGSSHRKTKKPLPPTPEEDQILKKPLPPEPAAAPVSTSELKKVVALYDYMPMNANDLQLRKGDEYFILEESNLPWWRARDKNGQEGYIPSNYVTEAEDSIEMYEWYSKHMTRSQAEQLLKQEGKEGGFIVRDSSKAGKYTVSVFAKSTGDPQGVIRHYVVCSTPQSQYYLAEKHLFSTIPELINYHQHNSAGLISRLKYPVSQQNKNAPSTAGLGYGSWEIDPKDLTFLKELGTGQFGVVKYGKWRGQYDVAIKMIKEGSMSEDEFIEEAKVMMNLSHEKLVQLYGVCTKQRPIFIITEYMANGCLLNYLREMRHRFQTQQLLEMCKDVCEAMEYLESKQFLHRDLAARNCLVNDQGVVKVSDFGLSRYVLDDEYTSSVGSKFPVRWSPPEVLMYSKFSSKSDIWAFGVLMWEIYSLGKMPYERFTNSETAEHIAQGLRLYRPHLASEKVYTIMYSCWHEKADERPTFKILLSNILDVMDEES

[2] = Chemical stability in solution; assay type: physicochemical
[3] = target: T1, Tyrosine-protein kinase BTK; experiment: Inhibition of biotinylated and activated BTK (unknown origin) using FITC-labeled Srctide peptide substrate and ATP
[4] = target: T1, Tyrosine-protein kinase BTK; experiment: Binding affinity to biotinylated and activated BTK (unknown origin) at 0.001 to 0.1 uM incubated for 1 hr by TR-FRET assay
[5] = target: T1, Tyrosine-protein kinase BTK; experiment: Binding affinity to biotinylated and unactivated BTK (unknown origin) incubated for 1 hr by TR-FRET assay
[6] = target: T1, Tyrosine-protein kinase BTK; experiment: Inhibition of biotinylated and unactivated BTK (unknown origin) using FITC-labeled Srctide peptide substrate and ATP
[7] = target: T1, Tyrosine-protein kinase BTK; experiment: Inhibition of unactivated BTK (unknown origin) using 30 uM probe 5-(4-(4-(6-(3-(4-tert-butylbenzamido)-2-methylphenyl)-4-methyl-3-oxo-3,4-dihydropyrazin-2-ylamino)benzoyl)piperazine-1-carbothioamido)-2-(6-hydroxy-3-oxo-3H-xanthen-9-yl)benzoic acid
[8] = target: T1, Tyrosine-protein kinase BTK; experiment: Inhibition of biotinylated and activated BTK (unknown origin) up to 100 uM using FITC-labeled Srctide peptide substrate and ATP

Compound	Activity [1]	Stability [2]	IC50 [3]	Activity [4]	Kd [5]	IC50 [6]	inhibition [7]	inhibition [8]
Cc1c(NC(=O)c2ccc(C(C)(C)C)cc2)cccc1-c1cn(C)c(=O)c(Nc2ccc(C(=O)NCCOCCOCCNC(=S)Nc3ccc(-c4c5ccc(=O)cc-5oc5cc(O)ccc45)c(C(=O)O)c3)cc2)n1	Active	Unstable	305 nM	inactive	8.8 nM	7.8 nM		
Cc1c(NC(=O)c2ccc(C(C)(C)C)cc2)cccc1-c1cn(C)c(=O)c(Nc2ccc(C(=O)NCCNC(=S)Nc3ccc(-c4c5ccc(=O)cc-5oc5cc(O)ccc45)c(C(=O)O)c3)cc2)n1	Active	Unstable	290 nM	inactive	6.1 nM	5.6 nM		
CC(=O)Nc1cccc(NC(=O)c2ccc(CN3CCN(C)CC3)cc2)c1						4700 nM	> 10%	inactive

Compounds with a lower IC50 [6], results first:

Activity [1]	Stability [2]	IC50 [3]	Activity [4]	Kd [5]	IC50 [6]	inhibition [7]	inhibition [8]	Compound
Active		350 nM	inactive	3.8 nM	4.8 nM			Cc1c(NC(=O)c2ccc(C(C)(C)C)cc2)cccc1-c1cn(C)c(=O)c(Nc2ccc(C(=O)N3CCOC(CNC(=S)Nc4ccc(-c5c6ccc(=O)cc-6oc6cc(O)ccc56)c(C(=O)O)c4)C3)cc2)n1 (stereo unspecified)
Active		208 nM	inactive	6.2 nM	3.2 nM			Cc1c(NC(=O)c2ccc(C(C)(C)C)cc2)cccc1-c1cn(C)c(=O)c(Nc2ccc(C(=O)NCCCNC(=S)Nc3ccc(-c4c5ccc(=O)cc-5oc5cc(O)ccc45)c(C(=O)O)c3)cc2)n1
Active		69 nM	inactive	2.5 nM	0.61 nM			Cc1c(NC(=O)c2ccc(C(C)(C)C)cc2)cccc1-c1cn(C)c(=O)c(Nc2ccc(C(=O)N3CCN(C(=S)Nc4ccc(-c5c6ccc(=O)cc-6oc6cc(O)ccc56)c(C(=O)O)c4)CC3)cc2)n1
Active	Unstable	189 nM	inactive	5.5 nM	4.3 nM			Cc1c(NC(=O)c2ccc(C(C)(C)C)cc2)cccc1-c1cn(C)c(=O)c(Nc2ccc(C(=O)NCCCCNC(=S)Nc3ccc(-c4c5ccc(=O)cc-5oc5cc(O)ccc45)c(C(=O)O)c3)cc2)n1
